Reference: patent US11365203B2, “Fluorescent dye and preparation method and use thereof” (Fluorescence Diagnosis (shanghai) Biotech Company Ltd., priority 2016, dated 2022)

How the values were obtained:
Format in all cases: physicochemical
[1] = Fluorescence emission spectra of molecular rotors in glycerin and methanol; conditions: for Maximum Emission Wavelength: 1×10^−5 M in glycerin and methanol, excited at maximum excitation wavelength of each dye; for Fluorescence Intensity Ratios in Glycerol/Methanol: 1×10^−5 M, glycerol vs methanol solution
Protocol: The fluorescent dyes (molecular rotors) prepared in Examples 1-68 were separately dissolved in dimethyl sulfoxide to prepare respectively a mother liquor having a concentration of 1×10^−2 M, and each of the mother liquors was added individually to glycerin and methanol, and mixed uniformly, thereby solutions of a final concentration of 1×10^−5 M were prepared individually. According to the different fluorescent dyes, the fluorescence emission spectra of the fluorescent dyes were detected with the maximum excitation wavelengths of respective fluorescent dyes successively under the same conditions.

[2] = Fluorescence emission in ethylene glycol-glycerol mixed solutions of different viscosities; conditions: 1×10^−5 M, 16.4-946.0 cp; for Emission wavelength: excited at 480 nm; for Viscosity response of fluorescence intensity: log intensity vs log viscosity linear
Protocol: Molecular Rotors 1, 2, 3, 22, 57, and 63 were added to ethylene glycol-glycerol mixed solutions having viscosities of 16.4 cp, 29.8 cp, 64.5 cp, 143.5 cp, 377.0 cp, and 946.0 cp to prepare a solution with a final concentration of 1×10^−5 M. The solution was excited at 480 nm. The fluorescence emission spectra at different viscosities were shown in FIGS. 1, 4, 7, 10, 13, and 16. Emission wavelengths of the molecular rotors were 555 nm, 590 nm, 610 nm, 570 nm, 559 nm, and 675 nm, respectively.

[3] = Fluorescence emission intensity in dichloromethane and methanol (polarity response); conditions: 1×10^−5 M; dichloromethane vs methanol; 25° C.
Protocol: Molecular Rotors 1, 2, 3, 22, 57, 63 were added to dichloromethane and methanol respectively to prepare a solution with a final concentration of 1×10^−5 M. Then, the solution was excited individually by excitation wavelengths of 480 nm, 480 nm and 500 nm at 25° C. to detect their fluorescence emission intensities in two different polar solvents.

Maximum Emission Wavelength [1] [nm] | Fluorescence Intensity Ratios in Glycerol/Methanol [1] | Emission wavelength [2] [nm] | Viscosity response of fluorescence intensity [2] | Polarity response of fluorescence intensity [3] | Molecule
590 | 1183 | 590 | sensitive to viscosity | insensitive to the polarity change | 2-[2-cyano-2-(2-benzoxazole)-vinyl]-5-didecylamino-thieno[3,2,b]thiophene [Molecular Rotor 2]
555 | 790 | 555 | sensitive to viscosity | insensitive to the polarity change | CN(C)c1cc2sc(/C=C(\C#N)C(=O)OC(C)(C)C)cc2s1 [Molecular Rotor 1, 2-(2-cyano-2-tert-butyl formatevinyl)-5-dimethylamino-thieno[3,2,b]thiophene]
570 | 615 | – | – | – | CCCCCCCCCCN(CCCCCCCCCC)c1ccc2cc(C=C(C#N)C#N)sc2c1 [Molecular Rotor 25]
610 | 712 | – | – | – | CN1C(=O)/C(=C\c2cc3ccc(N(C)CCOCCC(=O)O)cc3s2)N=C1c1ccccc1 [Molecular Rotor 26]
600 | 601 | – | – | – | CCCCN(CC(O)CO)c1ccc2cc(/C=C3/N=C(C)N(C)C3=O)sc2c1 (stereo not drawn) [Molecular Rotor 27]
650 | 569 | – | – | – | CCCCN(CCO)c1ccc2cc(/C=C3N=C(/C=C/c4ccccc4)N(C)C/3=O)sc2c1 [Molecular Rotor 28]
570 | 515 | – | – | – | COCCOCCOCCOCCOCCN(C)c1ccc2cc(/C=C(\C#N)C(=O)O)sc2c1 [Molecular Rotor 29]
520 | 513 | – | – | – | COCCNC(=O)/C(C#N)=C/c1cc2ccc(OC)cc2s1 [Molecular Rotor 30]
535 | 572 | – | – | – | COC(=O)/C(C#N)=C/c1cc2ccc(O)cc2s1 [Molecular Rotor 31]
570 | 612 | – | – | – | COc1c(/C=C(\C#N)C(=O)OC(C)(C)C)sc2c(OC)c(N(C)C)sc12 [Molecular Rotor 32]
565 | 531 | – | – | – | COc1c(/C=C(\C#N)C(=O)O)sc2c(OC)c(N(C)C)sc12 [Molecular Rotor 33]
626 | 1012 | – | – | – | CN(C)c1ccc2c(c1)sc1cc(C=C(C#N)C#N)sc12 [Molecular Rotor 34]
626 | 476 | – | – | – | CN(CCO)c1ccc2c(c1)sc1cc(/C=C(\C#N)C(=O)OC(C)(C)C)sc12 [Molecular Rotor 35]
628 | 901 | – | – | – | COCCNC(=O)/C(C#N)=C/c1cc2sc3cc(N(CCO)CCO)ccc3c2s1 [Molecular Rotor 36]
627 | 879 | – | – | – | CNc1ccc2c(c1)sc1cc(/C=C(\C#N)C(=O)O)sc12 [Molecular Rotor 37]
650 | 623 | – | – | – | COCCOCCOCCOCCOCCN(C)c1ccc2c(c1)sc1cc(/C=C(\C#N)c3nc4ccccc4o3)sc12 [Molecular Rotor 38]
667 | 541 | – | – | – | CN(CCC#N)c1ccc2c(c1)sc1cc(/C=C(\C#N)c3nc4ccccc4s3)sc12 [Molecular Rotor 39]
659 | 652 | – | – | – | CCCCN(CCO)c1ccc2c(c1)sc1cc(/C=C3/N=C(c4ccccc4)N(C)C3=O)sc12 [Molecular Rotor 40]
558 | 875 | – | – | – | CN(C)c1cc2cc3sc(C=C(C#N)C#N)cc3cc2s1 [Molecular Rotor 41]

Maximum Emission Wavelength [1] [nm] | Fluorescence Intensity Ratios in Glycerol/Methanol [1] | Emission wavelength [2] [nm] | Viscosity response of fluorescence intensity [2] | Polarity response of fluorescence intensity [3] | Molecule
558 | 924 | – | – | – | CCCCCCCCCCN(CCCCCCCCCC)c1cc2cc3sc(/C=C(\C#N)C(=O)OC(C)(C)C)cc3cc2s1 [Molecular Rotor 42]
582 | 816 | – | – | – | CN(CCO)c1cc2cc3sc(/C=C(\C#N)c4nc5ccccc5o4)cc3cc2s1 [Molecular Rotor 43]
603 | 631 | – | – | – | CNc1cc2cc3sc(/C=C(\C#N)c4nc5ccccc5s4)cc3cc2s1 [Molecular Rotor 44]
585 | 812 | – | – | – | COCCOCCOCCOCCOCCN(C)c1cc2cc3sc(/C=C4/N=C(C)N(C)C4=O)cc3cc2s1 [Molecular Rotor 45]
563 | 712 | – | – | – | COCCNC(=O)/C(C#N)=C/c1cc2cc3sc(N4CCCC4)cc3cc2s1 [Molecular Rotor 46]
561 | 912 | – | – | – | CN(CCC#N)c1cc2cc3sc(/C=C(\C#N)C(=O)O)cc3cc2s1 [Molecular Rotor 47]
562 | 608 | – | – | – | CN(CCO)c1cc2cc3cc(C=C(C#N)C#N)sc3cc2s1 [Molecular Rotor 48]
559 | 612 | – | – | – | CN(CCOCCCS(=O)(=O)O)c1cc2cc3cc(/C=C(\C#N)C(=O)OC(C)(C)C)sc3cc2s1 [Molecular Rotor 49]
587 | 777 | – | – | – | CC1=N/C(=C/c2cc3cc4cc(N(CCO)CCO)sc4cc3s2)C(=O)N1C [Molecular Rotor 50]
599 | 535 | – | – | – | CNc1cc2cc3cc(/C=C4/N=C(c5ccccc5)N(C)C4=O)sc3cc2s1 [Molecular Rotor 51]
578 | 680 | – | – | – | COCCOCCOCCOCCOCCN(C)c1cc2cc3cc(/C=C(\C#N)c4nc5ccccc5o4)sc3cc2s1 [Molecular Rotor 52]
599 | 915 | – | – | – | CN(CCC#N)c1cc2cc3cc(/C=C(\C#N)c4nc5ccccc5s4)sc3cc2s1 [Molecular Rotor 53]
563 | 722 | – | – | – | COCCNC(=O)/C(C#N)=C/c1cc2cc3cc(N4CCOCC4)sc3cc2s1 [Molecular Rotor 54]
562 | 466 | – | – | – | COCCNC(=O)/C(C#N)=C/c1cc2cc3cc(N4CCOCC4)sc3cc2s1 [Molecular Rotor 55]
645 | 591 | – | – | – | CN(C)c1cc2c(s1)-c1sc(/C=C(\C#N)C(=O)OC(C)(C)C)cc1C2(C)C [Molecular Rotor 65]
670 | 623 | – | – | – | CN(C)c1cc2c(s1)-c1sc(/C=C(\C#N)c3nc4ccccc4o3)cc1C2(C)C [Molecular Rotor 66]
690 | 789 | – | – | – | CN(CCO)c1cc2c(s1)-c1sc(/C=C(\C#N)c3nc4ccccc4s3)cc1C2(C)C [Molecular Rotor 67]
648 | 953 | – | – | – | CN(CCO)c1cc2c(s1)-c1sc(/C=C(\C#N)C(=O)O)cc1C2(C)C [Molecular Rotor 68]

Molecule | Maximum Emission Wavelength [1] [nm] | Fluorescence Intensity Ratios in Glycerol/Methanol [1] | Emission wavelength [2] [nm] | Viscosity response of fluorescence intensity [2] | Polarity response of fluorescence intensity [3]
CN(C)c1cc2c(s1)-c1sc(C=C(C#N)C#N)cc1[Si]2(C)C [Molecular Rotor 56] | 655 | 591 | – | – | –
C[Si]1(C)c2cc(/C=C(\C#N)C(=O)O)sc2-c2sc(N(CCO)CCO)cc21 [Molecular Rotor 58] | 656 | 683 | – | – | –
CNc1cc2c(s1)-c1sc(/C=C(\C#N)C(=O)OC(C)(C)C)cc1[Si]21CCC1 [Molecular Rotor 60] | 637 | 812 | – | – | –
CN(CCC#N)c1cc2c(s1)-c1sc(/C=C(\C#N)c3nc4ccccc4o3)cc1[Si]21CCC1 [Molecular Rotor 61] | 691 | 816 | – | – | –
CN(CCO)c1cc2c(s1)-c1sc(/C=C(\C#N)c3nc4ccccc4s3)cc1[Si]21CCC1 [Molecular Rotor 62] | 715 | 759 | – | – | –
